{"source": "patent US20070270432A1", "about": "“Novel Method” (priority 2002, published 2007)", "key": {"[1]": {"system": "polysialylated neurons in layer II of the entorhinal and perirhinal cortex", "assay": "NCAM PSA expression in medial temporal lobe after chronic administration", "type": "in vivo, rat", "settings": "20 mg/kg; for PSA immunopositive cell frequency: medial temporal lobe, 40 days by gavage", "procedure": "Experimentally naïve postnatal day 80 (at the time of NCAM-PSA assessment) male Wistar rats were employed in all studies. All animals were housed singly and maintained at 22±2° C. on a standard 12 h-light/dark cycle with food and water available ad libitum. Animals were introduced to the experimental holding rooms at least 3 days prior to the commencement of any study. The frequency of polysialylated neurons in the rat medial temporal lobe was also examined following chronic exposure to 5-HT6 antagonist. […] Horizontal cryosections were cut from the frozen tissue at various levels with reference to Bregma (see above), these were thaw-mounted onto glass slides, which were coated with poly-[…] diluted 1:1 in dH2O, and immersion fixed for 30 minutes with 70% ethanol. The sections were then washed twice for 10 minutes each in 0.1M phosphate buffered saline (PBS) and incubated for 20 hours in a humidified chamber at room temperature with the primary antibody diluted 1:500 in PBS containing 1% bovin serum albumin (w/v) and 1% normal goat serum (v/v) to reduce non-specific staining. The humidified chamber prevented the sections from evaporating. The primary antibody was a monoclonal raised against PSA, which was provided by Professor G, Rougon (CNRS UMR 6545, 13288 Marseille, France). On completion of the primary antibody incubation, the sections were washed twice for ten minutes each in PBS and incubated at room temperature for 3 hours in the humidified chamber with the secondary antibody, at a dilution factor of 1:100, again in PBS containing 1% BSA and 1% NGS. The secondary antibody was a goat anti-mouse IgM conjugated to fluorescein (FITC). Following the second incubation, the sections ware again washed twice for ten minutes each in PBS, mounted in the fluorescence enhancing medium Citifluor® and observed for fluorescence with a Leitz DM RB fluorescent microscope. Quantitative image analysis was performed using the Leica Quantimet 500®, a P.C.-based software package, which was connected to the fluorescence microscope with a high sensitivity CCD video camera. Each microscope lens was calibrated for length and area measurements using a 1 mm graticule. […] Cell identification was aided by the use of the nuclear counter-stain propidium iodide (40 ng/ml PBS; 60 sec). […] This was done for each section and a mean±SEM was calculated for each brain with the results expressed as PSA-positive cells per unit area. […] Cell identification was again aided by the use of the nuclear counter-stain propidium iodide (40 ng/ml PBS; 60 sec) with the use of alternate sections eliminating the possibility of double counting. Cell counts were divided by the length of the cortex and multiplied by the average length of the cortex, which was taken to be 10 mm. This was completed for each section and a mean±SEM was calculated for each brain with the results expressed as PSA-positive cells per unit length. […] NCAM PSA-positive cell numbers were obtained from each animal group. Results were expressed as mean±SEM with at least 3-6 values per group and analysed by ANOVA or unpaired non-parametric, Student's t-test, as indicated. […] Drug administration ceased 24 h prior to animal sacrifice. Animal weight gain and general physical condition was monitored daily. Methylcellulose (1% w/v) treated controls and use of the antipyschotic clozapine were employed for comparison."}, "[2]": {"system": "seizure threshold", "settings": "rat MEST test, dose range 0.1-30 mg/kg; cited from earlier work"}}}
{"smiles": "COc1ccc(NS(=O)(=O)c2sc3ccc(Cl)cc3c2C)cc1N1CCNCC1.Cl", "note": "[SB271046, 5-Chloro-3-methylbenzo[b]thiophene-2-sulfonic acid (4-methoxy-3-piperazin-1-ylphenyl)amide hydrochloride]", "values": [{"measurement": "effect on frequency of polysialylated neurons in the rat medial temporal lobe", "setting": "[1]; chronic exposure", "result": "increased"}, {"measurement": "PSA immunopositive cell frequency", "setting": "[1]; Bregma level -7.1 mm", "result": "61.7 ± 1.7 PSA-positive cells per unit length"}, {"measurement": "PSA immunopositive cell frequency", "setting": "[1]; Bregma level -7.6 mm", "result": "69.9 ± 0.9 PSA-positive cells per unit length"}, {"measurement": "PSA immunopositive cell frequency", "setting": "[1]; Bregma level -8.1 mm", "result": "125.4 ± 3.5 PSA-positive cells per unit length"}, {"measurement": "PSA immunopositive cell frequency", "setting": "[1]; Bregma level -8.6 mm", "result": "178.3 ± 12.2 PSA-positive cells per unit length"}, {"measurement": "seizure threshold", "setting": "[2]", "result": "increases seizure threshold"}]}
